Results: patent US20230158015A1, “DRUG COMBINATIONS FOR INHIBITING INFLAMMATION AND SRC KINASE ACTIVATION FOLLOWING INVASIVE SURGICAL PROCEDURES” (SINTETICA S.A., priority 2020, published 2023)

What was measured:
p-Src / total Src [1] = assay: Total Src and p-Src expression in AsPc 1 human pancreatic cancer cell line (Western blot); type: cell-based; settings: 10 µM lidocaine, 100 nM methylnaltrexone or both, one hour
Protocol: (§1) Example 10 evaluated the effect of 10 µM lidocaine (L), 100 nM methylnaltrexone (M) and the combination of 10 µM lidocaine + 100 nM methylnaltrexone (L+M) for 1 hour on total Src and p-Src expression in a human pancreatic cancer cell line (AsPc 1).
(§2) • P-Src-Tyr416 (GeneTex # GTX81151) 1:2000 in 5% bovine serum albumin, at room temperature, 4 hours • Total Src (CST # 2108S) 1:3000 in 5% bovine serum albumin, at room temperature, 4 hours

p-Src / total Src [2] = assay: Total Src and p-Src expression in MiaPaCa 2 human pancreatic cancer cell line (Western blot); type: cell-based; settings: 10 µM lidocaine, 100 nM methylnaltrexone or both, one hour
Protocol: as §2
as §1, with “Example 11” for “Example 10”, “line (MiaPaCa 2). Experimental conditions were identical to Example 10.” for “line (AsPc 1).”

p-Src / total Src [3] = assay: Total Src and p-Src expression in Panc1 human pancreatic cancer cell line (Western blot); type: cell-based; settings: 10 µM lidocaine, 100 nM methylnaltrexone or both, time points up to 6 hours, fresh media
Protocol: as §2
Example 12 evaluated the effect of 10 µM lidocaine (L), 100 nM methylnaltrexone (M) and the combination of 10 µM lidocaine + 100 nM methylnaltrexone (L+M) on total Src and p-Src expression in a human pancreatic cancer cell line (Panc1) at multiple time points up to 6 hours, in fresh media. Experimental conditions were identical to Example 10.

[4] = system: LPS-challenged C57BL/6 mice; assay: LPS-induced inflammation model, H&E histopathology of lungs and spleen; type: in vivo, mouse
Protocol: (§3) C57BL/6J mice (6-8 weeks) were purchased from Charles River Laboratories (USA) and acclimatized for at least 1 week before use. All mice were housed in a pathogen-free facility. The mice received LPS for 24 hours. Following 24 hours, mice were treated either with lidocaine alone or methylnaltrexone alone or a combination of both, as shown in Table 1.
(§4) At the conclusion of the study, the blood and tissue samples were collected for further study. The serum was used to determine pro-inflammatory cytokines using the LEGENDplex™ mouse inflammation panel (BioLegend, USA) kit followed by flow cytometry. The lungs and spleen tissue samples were used for hematoxylin and eosin (H&E) staining and immunohistochemical analyses for immune cells, including macrophages and natural killer (NK) cells, B cells, T cells, and its subsets. For histopathology and immunohistochemistry (IHC), tissue samples were prepared by cutting 4-µm sections from the paraffin blocks. IHC staining was performed by methods described earlier. The images were captured using bright field microscopy (Nikon Microscope). Two independent investigators evaluated the H&E and all immunohistochemical staining. For slide scoring, each investigator assessed the tissues and gave a score of 0 (no expression) to 4+ (strong uniform expression) as described previously. The data were expressed either as the mean ± SD or mean ± SEM by using Graph Pad Prism software.

[5] = system: immune cells in lungs and spleen of LPS-challenged mice; assay: LPS-induced inflammation model, IHC staining of immune cells in lungs and spleen; type: in vivo, mouse; settings: lungs and spleen sections
Protocol: as §3
as §4, with “The data were expressed either as the mean ± SD or mean ± SEM by using Graph Pad Prism software.” left out

## CCN(CC)CC(=O)Nc1c(C)cccc1C [lidocaine, 2-diethylaminoaceto-2′,6′-xylidide]
p-Src / total Src [1]
  p-Src activity: attenuated p-Src activity
p-Src / total Src [2]
  p-Src: attenuated p-Src
p-Src / total Src [3]
  p-Src: inconsistent effects on decreases in p-Src
[4]; LPS challenged mice, lungs
  H&E staining, histopathology of lungs: perivascular edema and accumulation of mixed cell infiltration within blood, and lymphatic vessels
[4]; LPS challenged mice, spleen
  histological examination of spleen: increased number of erythrocytes in the red pulp, along with mild edema
[4]; mouse model, drug alone
  LPS-induced inflammation (overall conclusion): partially mitigate
[5]
  F4/80 positive area (macrophages): partially decreased
